Laboratory results as given in PMC11869560, “Anticancer and cancer preventive activities of shogaol and curcumin from Zingiberaceae family plants in KG-1a leukemic stem cells” (BMC Complementary Medicine and Therapies, 2025).
Converted amounts (≈) assume the structure as drawn. Like-named read-outs stand apart in the source and are kept apart here.

Assays:
Assay type in all cases: cell-based, human
[1] = test system: TAZ protein expression in KG-1a cells; test: TAZ protein expression in KG-1a cells by Western blotting; settings: IC50 concentrations, 0–12 h
Protocol: KG-1a cells (1.5 × 10^5 cells/mL) were treated with compounds or extracts at different incubation times. Then, the cells were harvested and the whole proteins were extracted using a RIPA buffer (25 mM Tris-base, pH 7.6, 0.1% SDS, 1% Triton X-100, 150 mM NaCl, and 1 mM EDTA). The protein concentration was measured using the Folin-Lowry or Bradford assay. The whole protein lysates (30 µg/lane) were then separated through 7.5% SDS-PAGE under reducing conditions and then transferred to PVDF membranes. The membranes were blocked in 5% skim milk in PBS, pH 7.4 at RT for 2 h, then, target proteins were probed with specific primary antibodies (anti-WT1, anti-CD34, anti-GAPDH, anti-cleaved caspase-3, anti-cleaved PARP, anti-phospho-Akt, anti-phospho-c-Jun, anti-phospho-SAPK/JNK, and anti-YAP/TAZ) indicated in Table S10 which diluted at a ratio of 1:1,000 in PBS, pH 7.4 at RT for 2 h. After incubation, the membranes were rinsed 6 times with 0.1% Tween-20 (Sigma-Aldrich, MA, USA) in PBS, pH 7.4 (PBS-T), each time for 5 min. […] Finally, the protein band signal was quantified by using a scan densitometer (Bio-Rad Laboratories, CA, USA).

[2] = test system: CD34 protein expression in KG-1a cells; test: CD34 protein expression in KG-1a cells by Western blotting; settings: IC20 concentrations, 48 h, normalized to GAPDH
Protocol: (§1) KG-1a cells (1.5 × 10^5 cells/mL) were treated with compounds or extracts at different incubation times. Then, the cells were harvested and the whole proteins were extracted using a RIPA buffer (25 mM Tris-base, pH 7.6, 0.1% SDS, 1% Triton X-100, 150 mM NaCl, and 1 mM EDTA). The protein concentration was measured using the Folin-Lowry or Bradford assay. The whole protein lysates (30 µg/lane) were then separated through 7.5% SDS-PAGE under reducing conditions and then transferred to PVDF membranes. The membranes were blocked in 5% skim milk in PBS, pH 7.4 at RT for 2 h, then, target proteins were probed with specific primary antibodies (anti-WT1, anti-CD34, anti-GAPDH, anti-cleaved caspase-3, anti-cleaved PARP, anti-phospho-Akt, anti-phospho-c-Jun, anti-phospho-SAPK/JNK, and anti-YAP/TAZ) indicated in Table S10 which diluted at a ratio of 1:1,000 in PBS, pH 7.4 at RT for 2 h. After incubation, the membranes were rinsed 6 times with 0.1% Tween-20 (Sigma-Aldrich, MA, USA) in PBS, pH 7.4 (PBS-T), each time for 5 min. The reaction was followed by HRP-conjugated secondary antibody at 1:20,000 dilution in PBS, pH 7.4 at RT for 2 h, then, the membranes were rinsed 6 times for 5 min each with PBS-T. The proteins were shown using Immobilon Forte Western HRP substrate (Millipore, MA, USA). Finally, the protein band signal was quantified by using a scan densitometer (Bio-Rad Laboratories, CA, USA).

KG-1a cells [3] = test: MTT cytotoxicity assay in KG-1a cells; settings: for IC50 / IC20: Homo sapiens, KG-1a; for IC20: read-out: IC20 KG-1a (inhibitory concentration at 20% growth); for Selectivity index (SI): IC50 for normal cells (PBMCs) / IC50 for cancer cells (KG-1a)
Protocol: MTT (3-(4,5-dimethylthiazol-2-yl)-2,5-diphenyltetrazolium bromide) assay was used to investigate the cytotoxicity of the test samples. KG-1a (1.5 × 10^4 cells/well), K562 (1.0 × 10^4 cells/well), PBMCs (1.0 × 10^5 cells/well), A549 (5.0 × 10^3 cells/well), MCF-7 (5.0 × 10^3 cells/well), and HeLa (5.0 × 10^3 cells/well) were seeded into a 96-well plate and incubated overnight at 37 °C with 5% CO2. […] After that, 5 mg/mL of MTT dye solution (Sigma-Aldrich, MA, USA) was added and incubated for 4 h. The produced formazan crystals were dissolved in 200 µL of DMSO (Sigma-Aldrich, MA, USA); then, the optical density (OD) was measured using an ELISA plate reader (Metertech, Taipei, Taiwan) at 578 nm with a reference wavelength of 630 nm. The percentage of surviving cells was calculated from the absorbance values of the test and control wells using the following Equation. 1 [drawing 1]
where ODsample is a mean absorbance in test well and ODvehicle control is a mean absorbance in VC well. The average percentage of surviving cells at each concentration obtained from triplicate experiments was plotted as a dose-response curve. Inhibitory concentration values at 50% growth (IC50 value) were defined as the lowest concentration of the test sample that inhibited cell growth by 50% compared to the untreated control.
To calculate IC50 values, a dose-response curve was fitted using non-linear regression analysis, as described in the GraphPad Prism guidelines (https://www.graphpad.com/support/faq/how-to-determine-an-icsub50sub/). The IC50 value was obtained by determining the point at which the curve intersected 50% growth inhibition. Non-linear regression graphs of the dose-response curve for each compound are provided in the supplementary data file (Figs. S1–S8).
where IC50 N is IC50 for normal cells and IC50 C is IC50 for cancer cells which were treated with the same compounds in both cells.

[4] = test system: WT1 protein expression in KG-1a cells; test: WT1 protein expression in KG-1a cells by Western blotting
Protocol: as §1

[5] = test system: cleaved caspase-3 and PARP in KG-1a cells; test: Cleaved caspase-3 and cleaved PARP in KG-1a cells by Western blotting; settings: IC50 concentrations (curcumin 10 µg/mL, shogaol 3 µg/mL, nocodazole 10 ng/mL), 0–12 h
Protocol: as §1

KG-1a cells [6] = test: Cell cycle and apoptosis (sub-G1) assay by flow cytometry in KG-1a cells; settings: 48 h; for change of cell cycle phase population compared to VC: IC20 concentrations; for G2/M phase population: IC50 concentrations
Protocol: After treating KG-1a cells with active compounds at various concentrations for 48 h, the cells were pulsed with 10 µM BrdU (Sigma-Aldrich, MA, USA) for 20 min at 37 °C in an incubator with 5% CO2. Subsequently, the cells were harvested, washed with ice-cold PBS, pH 7.4 three times, and then fixed with 70% ethanol in PBS, pH 7.4 at −30 °C. Following fixation, the cells were washed and resuspended in 2 N HCl/0.5% Triton X-100 for 30 min at room temperature (RT). Then, 0.1 M sodium tetraborate decahydrate was added for 2 min at RT to neutralize the acid. Subsequently, the cells were stained with FITC-anti-BrdU antibody for 30 min at RT. After washing, the cells were resuspended in propidium iodide (PI) (Dojindo, Kumamoto, Japan) in PBS, pH 7.4 at a ratio of 1:1,000. The cell cycle phases were detected using a flow cytometer (CytoFLEX S, Beckman Coulter, CA, USA) and analyzed with the CytExpert program (Beckman Coulter, CA, USA).
The flow cytometry data were analyzed to assess both apoptosis and cell cycle distribution. Apoptosis was evaluated by determining the percentage of cells in the sub-G1 phase using the Nicoletti assay. For cell cycle analysis, populations in the G1, S, and G2/M phases were calculated after excluding the sub-G1 population to avoid interference from apoptotic cells, allowing for a clearer assessment of cell cycle arrest in different phases. Data were presented in separate graphs for the sub-G1 population and cell cycle phase distributions.

[7] = 48 h, active compounds and drugs, MTT, 48 h, read-out: IC50 KG-1a
[8] = Table S7, KG-1a, first replicate, read-out: IC50 value R1
[9] = Table S7, KG-1a, third replicate, read-out: IC50 value R3
[10] = active compounds and drugs, MTT, 48 h
[11] = IC20 concentrations, 48 h, normalized to GAPDH
[12] = IC20 concentration (nocodazole 6 ng/mL, curcumin 3 µg/mL, shogaol 0.12 µg/mL)
[13] = higher concentrations than IC20

**Q.** How did the “effect on TAZ protein abundance” value [1] turn out when COc1cc(/C=C/C(=O)CC(=O)/C=C/c2ccc(O)c(OC)c2)ccc1O [Curcumin, curcumin] was run?
**A.** no significant change in its abundance was observed

**Q.** And the “decrease of CD34 protein level compared to VC” value [2]?
**A.** 29.29 ± 2.43%

**Q.** What about the IC50 (KG-1a cells [3]; [7]) of the same molecule?
**A.** 10 µg/mL (≈ 27.1 µM)

**Q.** What about the IC20 (KG-1a cells [3]; 48 h, incubation for 48 h) of the same molecule?
**A.** 3.51 ± 0.59 µg/mL (≈ 9.53 µM)

**Q.** What about the IC50 (KG-1a cells [3]; [8]) of the same molecule?
**A.** 10.4 µg/mL (≈ 28.2 µM)

**Q.** And the IC50 (KG-1a cells [3]; Table S7, KG-1a, second replicate, read-out: IC50 value R2)?
**A.** 10.6 µg/mL (≈ 28.7 µM)

**Q.** What about the IC50 (KG-1a cells [3]; [9]) of the same molecule?
**A.** 10.6 µg/mL (≈ 28.8 µM)

**Q.** What about the “Selectivity index (SI)” value (KG-1a cells [3]; 48 h) of the same molecule?
**A.** 1.31

**Q.** What about the “Selectivity index (SI)” value (KG-1a cells [3]; 48 h, listed as curcumin) of the same molecule?
**A.** greater than 1

**Q.** And the “IC50 KG-1a” value (KG-1a cells [3]; [10])?
**A.** 10.52 ± 0.12 µg/mL (≈ 28.6 µM)

**Q.** And the “IC20 KG-1a (inhibitory concentration at 20% growth)” value (KG-1a cells [3]; incubation for 48 h)?
**A.** 3 µg/mL (≈ 8.14 µM)

**Q.** What about the “decrease of WT1 protein level compared to VC” value (“decrease of WT1 protein level” for short) [4, 11] of the same molecule?
**A.** 44.05 ± 9.81%

**Q.** What about the “decrease of WT1 protein level” value ([4]; IC50 concentration, 6 h) of the same molecule?
**A.** 77.01 ± 8.80%

**Q.** What about the “time to activation of cleaved caspase-3 and PARP” value [5] of the same molecule?
**A.** 6 h

**Q.** What about the “effect on sub-G1 population compared to VC” value (“effect … compared to VC” below) (KG-1a cells [6]; [12]) of the same molecule?
**A.** did not significantly increase the sub-G1 population

**Q.** And the “change of cell cycle phase population compared to VC” value (KG-1a cells [6])?
**A.** neither curcumin nor shogaol induced significant changes in the cell cycle phase population

**Q.** And the G2/M phase population (KG-1a cells [6]; sub-G1 excluded)?
**A.** 43.66 ± 6.75%

**Q.** And the “effect … compared to VC” value (KG-1a cells [6]; [13])?
**A.** significant increases in the sub-G1 population

**Q.** With CCCCC/C=C/C(=O)CCc1ccc(O)c(OC)c1 [Shogaol, shogaol] as the molecule, how does the “effect on TAZ protein abundance” value [1] read?
**A.** no significant change in its abundance was observed

**Q.** And the “decrease of CD34 protein level compared to VC” value [2]?
**A.** 35.93 ± 3.70%

**Q.** What about the IC50 (KG-1a cells [3]; [7]) of the same molecule?
**A.** 2.99 ± 0.01 µg/mL (≈ 10.8 µM)

**Q.** And the IC20 (KG-1a cells [3]; 48 h, incubation for 48 h)?
**A.** 0.12 µg/mL (≈ 0.434 µM)

**Q.** And the IC50 (KG-1a cells [3]; [8])?
**A.** 2.98 µg/mL (≈ 10.8 µM)

**Q.** And the IC50 (KG-1a cells [3]; Table S7, KG-1a, mean of R1-R3, read-out: IC50 value Mean)?
**A.** 2.99 µg/mL (≈ 10.8 µM)

**Q.** And the IC50 (KG-1a cells [3]; [9])?
**A.** 2.99 µg/mL (≈ 10.8 µM)

**Q.** And the “Selectivity index (SI)” value (KG-1a cells [3]; 48 h)?
**A.** 3.07

**Q.** And the “IC50 KG-1a” value (KG-1a cells [3]; [10])?
**A.** 3 µg/mL (≈ 10.9 µM)

**Q.** And the “decrease of WT1 protein level” value [4, 11]?
**A.** 30.71 ± 3.90%

**Q.** And the “decrease of WT1 protein level” value ([4]; IC50 concentration, 3 h)?
**A.** 22.58 ± 3.99%

**Q.** What about the “time to activation of cleaved caspase-3 and PARP” value [5] of the same molecule?
**A.** 3 h

**Q.** What about the “decrease of S phase population” value (KG-1a cells [6]; 1.5 µg/mL, sub-G1 excluded) of the same molecule?
**A.** 40.56 ± 3.82%

**Q.** What about the “effect … compared to VC” value (KG-1a cells [6]; [12]) of the same molecule?
**A.** did not significantly increase the sub-G1 population

**Q.** What about the “change of cell cycle phase population compared to VC” value (KG-1a cells [6]) of the same molecule?
**A.** neither curcumin nor shogaol induced significant changes in the cell cycle phase population

**Q.** What about the G2/M phase population (KG-1a cells [6]; sub-G1 excluded) of the same molecule?
**A.** 31.38 ± 1.60%

**Q.** What about the “effect … compared to VC” value (KG-1a cells [6]; [13]) of the same molecule?
**A.** significant increases in the sub-G1 population
